# According to patent US9518052B2, “Pyrazolopyridines and pyrazolopyrimidines” (Pfizer Inc., priority 2014, dated 2016):
# Structures can show the parent of a compound that is named as a salt.
# Columns and labels:
# Format in all cases: biochemical
# Settings in all cases: Caliper assay at 1 mM ATP
# JAK1 = JAK1 (Homo sapiens (Human), UniProt P23458); assay: JAK Caliper Enzyme Assay at 1 mM ATP (JAK1)
# Description: (§1) JAK Caliper Enzyme Assay at 1 mM ATP
# (§2) Test article was solubilized in dimethyl sulfoxide (DMSO) to a stock concentration of 30 mM. An 11-point half log dilution series was created in DMSO with a top concentration of 600 μM. […] The compound plates were diluted 1 to 60 resulting in a top final assay compound concentration of 10 μM and a 2% DMSO concentration.
# (§3) Test article and assay controls were added to a 384-well plate. Reaction mixtures contained 20 mM HEPES, pH 7.4, 10 mM magnesium chloride, 0.01% bovine serum albumin (BSA), 0.0005% Tween 20, 1 mM ATP and 1 μM peptide substrate. […] Enzyme concentrations and incubation times were optimized for each new enzyme preps and were modified slightly over time to ensure 20%-30% phosphorylation. The assays were stopped with a final concentration of 10 mM EDTA, 0.1% Coating Reagent and 100 mM HEPES, pH=7.4. The assay plates were placed on a Caliper Life Science Lab Chip 3000 (LC3000) instrument, and each well was sampled using appropriate separation conditions to measure the unphosphorylated and phosphorylated peptide.
# JAK2 = JAK2 (Homo sapiens (Human), UniProt O60674); assay: JAK Caliper Enzyme Assay at 1 mM ATP (JAK2)
# Description: as §1, §2, §3
# TYK2 = TYK2 (Homo sapiens (Human), UniProt P29597); assay: JAK Caliper Enzyme Assay at 1 mM ATP (TYK2)
# Description: as §1, §2, §3
# JAK3 = JAK3 (Homo sapiens (Human), UniProt P52333); assay: JAK Caliper Enzyme Assay at 1 mM ATP (JAK3)
# Description: as §1, §2, §3
# Chain of JAK3 (P52333 whole entry, species assumed): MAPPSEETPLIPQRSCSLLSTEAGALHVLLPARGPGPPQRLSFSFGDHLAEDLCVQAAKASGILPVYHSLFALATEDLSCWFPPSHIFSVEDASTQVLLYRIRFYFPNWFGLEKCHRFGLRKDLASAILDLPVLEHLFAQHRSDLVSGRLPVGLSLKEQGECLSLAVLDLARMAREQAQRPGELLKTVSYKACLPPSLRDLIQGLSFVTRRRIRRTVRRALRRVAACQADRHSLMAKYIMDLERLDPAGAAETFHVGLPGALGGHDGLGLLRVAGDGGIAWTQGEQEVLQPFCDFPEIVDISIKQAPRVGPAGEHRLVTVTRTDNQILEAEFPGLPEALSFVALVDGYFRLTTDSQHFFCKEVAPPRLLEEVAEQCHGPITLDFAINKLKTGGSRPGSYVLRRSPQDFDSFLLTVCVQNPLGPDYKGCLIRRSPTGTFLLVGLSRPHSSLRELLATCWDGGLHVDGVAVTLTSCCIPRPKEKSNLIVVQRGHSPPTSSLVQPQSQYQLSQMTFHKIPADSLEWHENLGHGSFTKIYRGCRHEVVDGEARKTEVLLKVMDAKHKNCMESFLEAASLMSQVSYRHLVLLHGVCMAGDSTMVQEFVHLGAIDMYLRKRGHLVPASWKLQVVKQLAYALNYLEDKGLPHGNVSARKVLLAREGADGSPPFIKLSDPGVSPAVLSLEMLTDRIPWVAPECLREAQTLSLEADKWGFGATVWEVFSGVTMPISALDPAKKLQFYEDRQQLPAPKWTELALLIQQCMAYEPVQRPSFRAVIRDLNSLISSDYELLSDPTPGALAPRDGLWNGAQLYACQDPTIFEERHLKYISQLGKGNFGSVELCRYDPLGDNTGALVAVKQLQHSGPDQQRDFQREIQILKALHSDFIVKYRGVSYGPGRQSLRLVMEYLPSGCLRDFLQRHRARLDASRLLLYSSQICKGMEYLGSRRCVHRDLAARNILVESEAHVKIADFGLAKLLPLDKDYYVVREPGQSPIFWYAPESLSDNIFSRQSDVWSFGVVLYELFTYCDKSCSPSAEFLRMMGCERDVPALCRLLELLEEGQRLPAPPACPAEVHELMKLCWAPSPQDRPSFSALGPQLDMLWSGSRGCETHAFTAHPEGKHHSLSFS
# Chain of JAK2 (O60674 whole entry, species assumed): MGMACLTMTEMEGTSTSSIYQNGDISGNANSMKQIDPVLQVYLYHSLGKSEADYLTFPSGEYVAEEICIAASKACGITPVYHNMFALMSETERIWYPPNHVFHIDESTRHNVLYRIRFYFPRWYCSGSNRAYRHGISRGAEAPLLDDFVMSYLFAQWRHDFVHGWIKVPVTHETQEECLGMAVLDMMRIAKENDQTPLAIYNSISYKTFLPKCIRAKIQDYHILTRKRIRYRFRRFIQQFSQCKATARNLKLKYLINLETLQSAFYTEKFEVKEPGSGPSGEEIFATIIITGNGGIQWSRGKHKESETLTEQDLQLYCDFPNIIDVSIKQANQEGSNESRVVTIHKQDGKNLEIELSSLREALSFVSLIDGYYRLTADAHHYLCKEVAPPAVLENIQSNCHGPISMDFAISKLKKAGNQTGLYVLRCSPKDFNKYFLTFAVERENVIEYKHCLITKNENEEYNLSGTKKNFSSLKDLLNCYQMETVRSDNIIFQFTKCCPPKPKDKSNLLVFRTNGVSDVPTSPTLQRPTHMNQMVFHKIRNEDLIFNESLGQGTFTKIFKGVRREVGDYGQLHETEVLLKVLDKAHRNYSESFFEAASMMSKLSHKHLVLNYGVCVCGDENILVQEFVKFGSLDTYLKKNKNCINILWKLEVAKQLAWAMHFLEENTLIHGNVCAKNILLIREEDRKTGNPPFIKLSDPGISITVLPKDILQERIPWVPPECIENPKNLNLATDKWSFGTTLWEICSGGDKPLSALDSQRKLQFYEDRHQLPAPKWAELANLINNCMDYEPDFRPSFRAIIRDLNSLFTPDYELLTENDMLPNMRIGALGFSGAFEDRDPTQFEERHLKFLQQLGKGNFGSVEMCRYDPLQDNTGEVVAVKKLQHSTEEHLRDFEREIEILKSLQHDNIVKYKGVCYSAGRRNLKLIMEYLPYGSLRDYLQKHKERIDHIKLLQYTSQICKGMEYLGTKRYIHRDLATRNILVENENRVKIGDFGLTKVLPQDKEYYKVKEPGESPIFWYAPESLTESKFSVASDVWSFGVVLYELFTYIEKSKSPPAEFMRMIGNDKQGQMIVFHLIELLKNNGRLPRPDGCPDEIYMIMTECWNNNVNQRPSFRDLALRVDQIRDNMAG
# Chain of TYK2 (P29597 whole entry, species assumed): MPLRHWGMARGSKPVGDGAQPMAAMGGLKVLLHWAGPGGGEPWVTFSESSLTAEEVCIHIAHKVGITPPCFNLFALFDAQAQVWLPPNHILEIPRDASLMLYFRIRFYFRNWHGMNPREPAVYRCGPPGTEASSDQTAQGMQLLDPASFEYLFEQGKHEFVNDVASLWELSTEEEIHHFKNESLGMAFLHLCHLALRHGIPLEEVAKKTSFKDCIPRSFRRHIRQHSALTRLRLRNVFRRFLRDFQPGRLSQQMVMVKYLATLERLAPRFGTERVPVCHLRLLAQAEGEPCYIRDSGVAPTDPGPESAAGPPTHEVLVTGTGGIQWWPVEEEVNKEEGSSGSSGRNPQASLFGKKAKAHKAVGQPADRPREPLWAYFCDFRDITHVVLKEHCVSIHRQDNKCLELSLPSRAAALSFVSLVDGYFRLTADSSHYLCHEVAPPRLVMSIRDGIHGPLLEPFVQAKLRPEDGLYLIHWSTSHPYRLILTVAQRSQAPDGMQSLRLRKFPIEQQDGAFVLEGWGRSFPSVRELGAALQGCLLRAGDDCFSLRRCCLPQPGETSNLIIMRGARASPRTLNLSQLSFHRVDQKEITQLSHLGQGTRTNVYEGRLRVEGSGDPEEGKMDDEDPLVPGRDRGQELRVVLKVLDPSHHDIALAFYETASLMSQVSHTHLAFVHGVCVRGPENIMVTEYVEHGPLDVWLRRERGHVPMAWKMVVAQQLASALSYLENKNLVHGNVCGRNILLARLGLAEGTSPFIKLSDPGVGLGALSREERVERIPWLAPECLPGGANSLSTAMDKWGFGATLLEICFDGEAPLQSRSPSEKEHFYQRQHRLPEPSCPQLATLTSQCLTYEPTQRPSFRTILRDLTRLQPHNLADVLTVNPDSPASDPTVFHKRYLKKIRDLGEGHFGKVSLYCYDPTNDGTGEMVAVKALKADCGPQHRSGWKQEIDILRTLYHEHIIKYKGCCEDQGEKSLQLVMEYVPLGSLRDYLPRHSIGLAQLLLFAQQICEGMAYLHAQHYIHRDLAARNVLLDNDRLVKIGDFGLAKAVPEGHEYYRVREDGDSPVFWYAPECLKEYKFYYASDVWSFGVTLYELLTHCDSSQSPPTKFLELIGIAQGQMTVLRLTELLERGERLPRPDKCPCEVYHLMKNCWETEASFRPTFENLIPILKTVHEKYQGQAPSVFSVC
# Chain of JAK1 (P23458 whole entry, species assumed): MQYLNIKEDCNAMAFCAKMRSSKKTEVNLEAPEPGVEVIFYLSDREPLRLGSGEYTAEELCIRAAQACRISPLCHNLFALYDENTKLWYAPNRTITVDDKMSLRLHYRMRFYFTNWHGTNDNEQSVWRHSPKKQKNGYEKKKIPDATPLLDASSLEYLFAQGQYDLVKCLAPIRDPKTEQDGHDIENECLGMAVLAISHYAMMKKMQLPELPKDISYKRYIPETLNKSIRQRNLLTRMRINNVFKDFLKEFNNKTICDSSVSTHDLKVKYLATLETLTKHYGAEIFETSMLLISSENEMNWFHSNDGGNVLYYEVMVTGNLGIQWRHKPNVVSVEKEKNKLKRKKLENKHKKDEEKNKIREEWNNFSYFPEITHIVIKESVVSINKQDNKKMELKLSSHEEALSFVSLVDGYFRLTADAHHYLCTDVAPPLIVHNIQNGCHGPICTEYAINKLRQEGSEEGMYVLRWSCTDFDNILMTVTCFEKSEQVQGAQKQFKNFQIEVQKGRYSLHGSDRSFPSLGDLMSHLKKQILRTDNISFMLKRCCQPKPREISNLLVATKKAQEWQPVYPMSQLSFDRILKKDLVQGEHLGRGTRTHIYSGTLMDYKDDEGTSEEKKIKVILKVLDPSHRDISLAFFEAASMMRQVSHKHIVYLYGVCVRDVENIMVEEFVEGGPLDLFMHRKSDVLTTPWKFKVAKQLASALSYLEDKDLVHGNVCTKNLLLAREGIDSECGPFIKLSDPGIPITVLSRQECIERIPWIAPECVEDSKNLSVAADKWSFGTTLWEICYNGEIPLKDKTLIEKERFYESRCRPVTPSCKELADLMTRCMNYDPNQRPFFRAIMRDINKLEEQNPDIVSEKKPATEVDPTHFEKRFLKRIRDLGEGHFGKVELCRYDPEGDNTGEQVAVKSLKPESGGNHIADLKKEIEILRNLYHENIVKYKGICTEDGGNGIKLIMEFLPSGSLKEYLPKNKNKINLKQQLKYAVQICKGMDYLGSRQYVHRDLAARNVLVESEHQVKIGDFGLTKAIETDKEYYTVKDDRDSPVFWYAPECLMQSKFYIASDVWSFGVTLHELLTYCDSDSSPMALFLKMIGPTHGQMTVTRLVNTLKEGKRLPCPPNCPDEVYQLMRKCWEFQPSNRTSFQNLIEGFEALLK
Structure (SMILES),IC50 (JAK1),IC50 (JAK2),IC50 (TYK2),IC50 (JAK3)
"CCN(c1ncccc1CNc1nc(-c2cc(F)c(O)cc2CC(F)(F)F)cc2[nH]nc(C(=O)NC)c12)S(C)(=O)=O [Example 63, 4-[({2-[ethyl(methylsulfonyl)amino]pyridin-3-yl}methyl)amino]-6-[5-fluoro-4-hydroxy-2-(2,2,2-trifluoroethyl)phenyl]-N-methyl-1H-pyrazolo[4,3-c]pyridine-3-carboxamide]",0.005 µM,0.0225 µM,0.107 µM,0.0821 µM
"CCc1cc(O)c(F)cc1-c1cc2[nH]nc(-n3cccn3)c2c(NCc2ccccc2N(C)S(C)(=O)=O)n1 [Example 162, N-[2-({[6-(2-Ethyl-5-fluoro-4-hydroxyphenyl)-3-(1H-pyrazol-1-yl)-1H-pyrazolo[4,3-c]pyridin-4-yl]amino}methyl)phenyl]-N-methylmethanesulfonamide]",0.0041 µM,0.0236 µM,0.0154 µM,0.0906 µM
"CNC(=O)c1n[nH]c2cc(-c3cc(F)c(O)cc3CC(F)(F)F)nc(NCC3CCCC3)c12 [Example 17, 4-[(cyclopentylmethyl)-amino]-6-[5-fluoro-4-hydroxy-2-(2,2,2-trifluoro-ethyl)phenyl]-N-methyl-1H-pyrazolo[4,3-c]pyridine-3-carboxamide]",0.0185 µM,0.0529 µM,0.142 µM,0.256 µM
"CNC(=O)c1n[nH]c2cc(-c3cc(F)c(O)cc3CC(F)(F)F)nc(NCc3cc(C)cnc3N(C)S(C)(=O)=O)c12 [Example 67, 6-[5-fluoro-4-hydroxy-2-(2,2,2-trifluoroethyl)phenyl]-N-methyl-4-[({5-methyl-2-[methyl(methylsulfonyl)amino]pyridin-3-yl}methyl)amino]-1H-pyrazolo[4,3-c]pyridine-3-carboxamide]",0.0163 µM,0.0482 µM,2.03 µM,0.0728 µM
"CCc1cc(O)c(F)cc1-c1nc(NCc2ccccc2N(C)S(C)(=O)=O)c2c(C(=O)NC)n[nH]c2n1 [Example 93, 6-(2-Ethyl-5-fluoro-4-hydroxyphenyl)-N-methyl-4-((2-(N-methylmethylsulfonamido)benzyl)amino)-1H-pyrazolo[3,4-d]pyrimidine-3-carboxamide]",0.002 µM,0.0084 µM,0.0139 µM,0.0274 µM
"Cc1ccc(S(=O)(=O)N(C)c2ccccc2CNc2nc(-c3cc(F)c(O)cc3CC(F)(F)F)cc3[nH]nc(C(N)=O)c23)cn1 [Example 70, 6-[5-fluoro-4-hydroxy-2-(2,2,2-trifluoroethyl)phenyl]-4-[(2-{methyl[(6-methylpyridin-3-yl)sulfonyl]amino}benzyl)amino]-1H-pyrazolo[4,3-c]pyridine-3-carboxamide]",0.012 µM,0.0524 µM,0.0794 µM,0.208 µM
CN(c1ccccc1CNCc1nc(-c2cc(F)c(O)cc2CC(F)(F)F)cc2[nH]ncc12)S(C)(=O)=O [Example 149],0.0027 µM,0.0145 µM,0.764 µM,0.0227 µM
"CCc1cc(O)c(F)cc1-c1cc2[nH]nc(C(N)=O)c2c(NCc2ccccc2N(C)S(=O)(=O)c2ccccc2)n1 [Example 40, 6-(2-Ethyl-5-fluoro-4-hydroxyphenyl)-4-({2-[methyl(phenylsulfonyl)amino]benzyl}amino)-1H-pyrazolo[4,3-c]pyridine-3-carboxamide]",0.0046 µM,0.0231 µM,0.0181 µM,0.13 µM
"CCc1cc(O)c(F)cc1-c1cc2[nH]ncc2c(NCc2ccccc2N(CC)S(=O)(=O)CC)n1 [Example 136, N-ethyl-N-[2-({[6-(2-ethyl-5-fluoro-4-hydroxyphenyl)-1H-pyrazolo[4,3-c]pyridin-4-yl]amino}methyl)phenyl]ethanesulfonamide hydrochloride]",0.0008 µM,0.0043 µM,0.0087 µM,0.0224 µM
"CCN(c1ccc(O)cc1CNc1nc(-c2cc(F)c(O)cc2CC(F)(F)F)cc2[nH]nc(C(=O)NC)c12)S(=O)(=O)c1ccccc1 [Example 36, 4-({2-[ethyl(phenyl-sulfonyl)amino]-5-hydroxybenzyl}amino)-6-[5-fluoro-4-hydroxy-2-(2,2,2-trifluoroethyl)phenyl]-N-methyl-1H-pyrazolo[4,3-c]pyridine-3-carboxamide]",0.075 µM,0.401 µM,0.364 µM,1.23 µM
"CCc1cc(O)c(F)cc1-c1cc2[nH]nc(C(=O)NC)c2c(N[C@H](C)c2ccccc2N(C)S(C)(=O)=O)n1 [Example 38, 6-(2-Ethyl-5-fluoro-4-hydroxyphenyl)-N-methyl-4-{[(1R)-1-{2-[methyl(methylsulfonyl)amino]phenyl}ethyl]amino}-1H-pyrazolo[4,3-c]pyridine-3-carboxamide]",0.004 µM,0.025 µM,0.0178 µM,0.122 µM
"CCc1cc(O)c(F)cc1-c1cc2[nH]ncc2c(NCc2cc(C)ccc2N(C)S(C)(=O)=O)n1 [Example 132, N-[2-({[6-(2-ethyl-5-fluoro-4-hydroxyphenyl)-1H-pyrazolo[4,3-c]pyridin-4-yl]amino}methyl)-4-methylphenyl]-N-methylmethanesulfonamide hydrochloride]",0.019 µM,0.0314 µM,1.29 µM,0.0184 µM
"Cc1ccc(N(C)S(C)(=O)=O)c(CNc2nc(-c3cc(F)c(O)cc3CC(F)(F)F)cc3[nH]ncc23)c1 [Example 150, N-{2-[({6-[5-Fluoro-4-hydroxy-2-(2,2,2-trifluoroethyl)phenyl]-1H-pyrazolo[4,3-c]pyridin-4-yl}amino)methyl]-4-methylphenyl}-N-methylmethanesulfonamide]",0.0216 µM,0.0489 µM,4.16 µM,0.0778 µM
"CCN(c1ncc(Cl)cc1CNc1nc(-c2cc(F)c(O)cc2CC(F)(F)F)cc2[nH]nc(C(N)=O)c12)S(C)(=O)=O [Example 71, 4-[({5-chloro-2-[ethyl(methylsulfonyl)amino]pyridin-3-yl}methyl)amino]-6-[5-fluoro-4-hydroxy-2-(2,2,2-trifluoroethyl)phenyl]-1H-pyrazolo[4,3-c]pyridine-3-carboxamide]",0.0441 µM,0.157 µM,2.75 µM,0.359 µM
"CCc1cc(O)c(F)cc1-c1cc2[nH]ncc2c(NCc2ccccc2N(C)S(C)(=O)=O)n1 [Example 131, N-[2-({[6-(2-Ethyl-5-fluoro-4-hydroxyphenyl)-1H-pyrazolo[4,3-c]pyridin-4-yl]amino}methyl)phenyl]-N-methylmethanesulfonamide]",< 0.0005 µM,0.0021 µM,0.0047 µM,0.0102 µM
"CN(c1ccc(Cl)cc1CNc1nc(-c2cc(F)c(O)cc2CC(F)(F)F)cc2[nH]nc(C(N)=O)c12)S(C)(=O)=O [Example 89, 4-({5-chloro-2-[methyl(methylsulfonyl)amino]benzyl}amino)-6-[5-fluoro-4-hydroxy-2-(2,2,2-trifluoroethyl)phenyl]-1H-pyrazolo[4,3-c]pyridine-3-carboxamide]",0.0146 µM,0.0571 µM,0.917 µM,0.212 µM
"CCc1cc(O)c(F)cc1-c1cc2[nH]ncc2c(N(C)Cc2cc(C)ccc2N(CC)S(C)(=O)=O)n1 [Example 142, N-ethyl-N-[2-({[6-(2-ethyl-5-fluoro-4-hydroxyphenyl)-1H-pyrazolo[4,3-c]pyridin-4-yl](methyl)-amino}methyl)-4-methylphenyl]methanesulfonamide]",0.0034 µM,0.0079 µM,0.885 µM,0.0279 µM
"CNC(=O)c1n[nH]c2cc(-c3cc(F)c(O)cc3CC(F)(F)F)nc(NCc3nccnc3N(C)S(C)(=O)=O)c12 [Example 51, 6-[5-fluoro-4-hydroxy-2-(2,2,2-trifluoroethyl)phenyl]-N-methyl-4-[({3-[methyl(methylsulfonyl)amino]pyrazin-2-yl}methyl)amino]-1H-pyrazolo[4,3-c]pyridine-3-carboxamide]",0.0035 µM,0.0208 µM,0.226 µM,0.0669 µM
"CCc1cc(O)c(F)cc1-c1cc2[nH]nc(C(=O)NC)c2c(NCc2ccccc2N(C)S(C)(=O)=O)n1 [Example 19, 6-(2-ethyl-5-fluoro-4-hydroxy-phenyl)-N-methyl-4-({2-[methyl(methyl-sulfonyl)amino]benzyl}amino)-1H-pyrazolo[4,3-c]pyridine-3-carboxamide]",0.0009 µM,0.0059 µM,0.0048 µM,0.0309 µM
"CCc1cc(O)ccc1-c1cc2[nH]ncc2c(N2CCc3c(cccc3NS(C)(=O)=O)C2)n1 [Example 123, N-{2-[6-(2-ethyl-4-hydroxyphenyl)-1H-pyrazolo[4,3-c]pyridin-4-yl]-1,2,3,4-tetrahydroisoquinolin-5-yl}methanesulfonamide formate]",0.0033 µM,0.0045 µM,0.0821 µM,0.0095 µM
"CNC(=O)c1n[nH]c2cc(-c3cc(F)c(O)cc3CC(F)(F)F)nc(NCc3ccccc3N(C)S(=O)(=O)CCOC)c12 [Example 60, 6-[5-fluoro-4-hydroxy-2-(2,2,2-trifluoroethyl)phenyl]-4-[(2-{[(2-methoxyethyl)sulfonyl](methyl)amino}benzyl)amino]-N-methyl-1H-pyrazolo[4,3-c]pyridine-3-carboxamide]",0.0066 µM,0.0292 µM,0.0565 µM,0.115 µM
